Measurements as given in patent US9562053B2, “Benzo-fused heterocyclic derivatives useful as agonists of GPR120” (Janssen Pharmaceutica NV, priority 2013, dated 2017).

Tests used:
Type in all cases: cell-based
[1] = target: T1, short form of the GPR120 receptor (Homo sapiens, UniProt Q5NUL3); experiment: Human GPR120 DiscoveRx PathHunter Beta-Arrestin Assay, Procedure β-arrestin B (5000 cells/well)
T1 construct: host or cells: PathHunter CHO-K1 GPR120S β-Arrestin Cell Line
T1 sequence (Q5NUL3 1-361): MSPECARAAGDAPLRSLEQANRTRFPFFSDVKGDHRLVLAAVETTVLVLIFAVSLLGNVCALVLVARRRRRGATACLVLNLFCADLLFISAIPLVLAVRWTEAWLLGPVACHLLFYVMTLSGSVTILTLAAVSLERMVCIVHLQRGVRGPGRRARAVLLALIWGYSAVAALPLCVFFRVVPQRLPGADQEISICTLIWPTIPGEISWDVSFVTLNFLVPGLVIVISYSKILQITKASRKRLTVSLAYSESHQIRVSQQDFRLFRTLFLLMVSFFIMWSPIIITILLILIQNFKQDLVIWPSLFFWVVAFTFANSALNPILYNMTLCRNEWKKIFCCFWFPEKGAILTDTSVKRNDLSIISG
Source text: The binding of an agonist (medium/long chain fatty acids or small molecule agonists) to the G-protein-coupled receptor GPR120 activates phospholipase C, leading to release of intracellular Ca^+2 through the generation of inositol 1,4,5-trisphosphate (InsP3 or IP3). GPR120 activation can also trigger intracellular signaling via recruitment of β-Arrestin. In the present method, agonist-induced activation of the human GPR120 receptor is monitored through the use of PathHunter CHO-K1 GPR120 β-Arrestin Cell Line engineered by DiscoveRx, as detailed below. The cell lines are designed to co-express both the ProLink/Enzyme Donor (PK)-tagged GPCR and the Enzyme Activator (EA)-tagged β-Arrestin fusion proteins. Upon GPR120 receptor stimulation/activation, the EA-tagged β-Arrestin portion is translocated to the tagged receptor, where the two enzyme fragments are brought within close proximity. Under these conditions, these fragments can interact and form an active Beta-gal enzyme complex through Enzyme Fragment Complementation (EFC). This active Beta-gal complex can enzymatically hydrolyse the substrate to produce a detectable light signal; therefore, activation as a function of agonist concentration can be expressed as an EC50 value to determine relative compound activities. This in vitro assay therefore serves to assess compound agonist activity of the GPR120.
In Procedure β-arrestin B the cells used were PathHunter CHO-K1 GPR120S β-Arrestin Cell Line, expressing the short form of the GPR120 receptor (Accession #NM_181745), with 5000 cells/well.
The selected CHO-K1 GPR120 β-Arrestin cells were cultured in Ham's F12 media supplemented with 10% fetal bovine serum (FBS), 1% Glutamine, 1×p/s, 800 μg/ml G418 and 300 μg/ml Hygromycin B (for selection). Cell stocks were maintained and grown in a sub-confluent state using standard cell culture procedures. The day before the experiment, the cells were harvested with non-enzymatic cell dissociation buffer and re-suspended in complete growth media at the desired concentration. A Corning 384-plate was then seeded with the proper number of cells in a volume of 25 μL, per well. The seeded plates were incubated overnight at 37° C.
On the day of the experiment, the Assay Buffer containing (a) HBSS with Ca^++ and Mg^++, (b) 20 mM HEPES, and (c) 0.1% BSA stabilizer (pH 7.4) was prepared. The growth medium was gently removed from the cell plates and 20 μL of Assay Buffer added to each well. The plate was then incubated at 37° C. for 60 mins. Test compounds were serially diluted in Assay Buffer to desired concentrations (more particularly, to one or more of the following μM concentrations: 25 μM, 12.5 μM, 6.25 μM, 3.125 μM, 1.562 μM, 0.781 μM, 0.391 μM, 0.195 μM, 0.098 μM, 0.049 μM, 0.024 μM, 0.012 μM). Five μl of compound dilution was then added to each well and the plate incubated at 37° C. for 90 mins. The detection reagents were prepared according to the manufacture's instruction. Twelve μL of the detection reagents were added to each well and the plate incubated at room temperature for 60 mins.
The plates were read on an EnVision instrument, using Protocol name: Luminescence, Plate type: 384 Costar, Measurement height: 3 mm, Measurement time: 1 s, Aperture: 384 Plate aperture. The % activity relative to the positive control was calculated using the following equation:
The % Activity values were plotted versus the concentration of test compound and fitted to a sigmoidal dose-response curve with a Hill slope=1 (fixed value) using nonlinear regression with GraphPad Prism 5.0 to calculate the EC50 values. The Fitting Equation was: Y=Bottom+(Top−Bottom)/(1+10^((LogEC50−X)*HillSlope)), where X is the log of the concentration and Y is the response.

[2] = target: T2, Human GPR120 short form (Homo sapiens, UniProt Q5NUL3); experiment: Human GPR120 in Calcium Flux Assay, Procedure Calcium A (2500 cells/well)
T2 construct: expressed in transfected cells
T2 sequence (Q5NUL3 1-361): T1 sequence (Q5NUL3 1-361)
Source text: (§1) This in vitro assay serves to assess test compound agonist activity against the short splice variant (SVS with Accession number NM_001195755.1 confirmed by sequencing data) of the GPR120 receptor. The Human Short splice variant #2 (NM_001195755.1) is missing an in-frame coding exon compared to variant 1 (the Human Long splice variant NM_181745.3), resulting in a shorter isoform (GPR120-S) lacking a 16 aa protein segment compared to isoform GPR120-L. The assay platform utilizes HEK-293 cells stably transfected to express the Human GPR120 short form. These cells are first loaded with the Ca^+2 sensitive dye, Fluo-4 NW. Upon stimulation, intracellular released Ca^+2 can bind to the dye and alter its fluorescence intensity. This increase in fluorescence signal, and thus the flux in intracellular [Ca^+2], is detected and quantitated by fluorescence imaging using a FLIPR reader. The effect of the agonist is measured as a function of concentration and used to calculate an EC50 based upon a response curve.
In this procedure 2500 cells/well were employed.
(§2) A Human GPR120 clone (Genbank accession number NM_001195755.1) was placed into the pcDNA3.1 mammalian expression vector carrying the neomycin resistance gene. A stable mammalian cell was generated by placing the above clone into a HEK293 background. Clonal cells responding to long chain fatty acids had expression levels of GPR120 confirmed by RT-qPCR. Human HEK-GPR120 cells were cultured in Dulbecco's Modified Eagle's Medium (DMEM)/F12 medium supplemented with 10% fetal bovine serum (FBS), 1% L-Glutamine and 1% penicillin/streptomycin and 0.5 mg/ml G-418. Cells were split 2 times a week to keep the cells in the log-phase growth.
(§3) In preparation for the assay, HEK cells stably transfected with Human GPR120 (2.5K cells per well in 25 uL growth medium) were seeded into 384-well plates and then incubated overnight (37° C., 5% CO2). The next day, the media was changed to 20 μl assay buffer and the cell starved for 1 h at 37° C. The dye loading solution (2× dye) was prepared using 10 ml assay buffer, 100 μl of 250 mM probenecid, 1 bottle of Component A, and 20 μl of dye in DMSO. Twenty μl of the 2× dye loading buffer was then added to each well. The plates were incubated at 37° C. for 30 min, then at room temperature for an additional 15 minutes, before performing the assay on FLIPR.
(§4) Test compounds were prepared in assay buffer (2 μl of test compound+198 μl assay buffer, final DMSO in assay plate is 0.2%) at the desired concentration, more particularly at 100 μM, 50 μM, 25 μM, 12.5 μM, 6.25 μM, 3.125 μM, 1.562 μM, 0.781 μM, 0.391 μM, 0.195 μM, 0.098 μM, 0.049 μM, 0.024 μM and 0.012 μM.
(§5) The assay was performed on a FLIPR plate reader using the following parameters. Baseline was read for 10 seconds at 1 sec intervals. The program was set to transfer 10 μL of ligand from compound plate to cell plate after baseline reading. Aspiration was executed at: 10 μl/sec speed, 4.6 μl height; Dispensing was executed at: 30 μl/sec speed, 45 μl height. After compound addition, each well was read for 300 sec, with measurements collected at 1 sec intervals.
(§6) The kinetic data from the FLIPR was based upon a 5 minute window for data collection. The fluorescence of each sample well was used for individual calculations of a normalized RFU value, which was defined as maximum response minus the minimum response. The normalized fluorescence reading (RFU) was calculated as follows: RFU=Fmax−Fmin
(§7) The data were fitted to a sigmoidal dose-response curve with a variable Hill slope (<2) using nonlinear regression with GraphPad Prism 5.0 to calculate the EC50 values. The Fitting Equation was: Y=Bottom+(Top−Bottom)/(1+10^((LogEC50−X)*HillSlope)), where X is the log of the concentration and Y is the response.

[3] = target: T2, Human GPR120 short form; experiment: Human GPR120 in Calcium Flux Assay, Procedure Calcium B (4200 cells/well)
Source text: as §1
In this procedure 4200 cells/well were employed.
as §2, §3, §4, §5, §6, §7

Row | SMILES | EC50 [1] | EC50 [2] | EC50 [3]
1 | CCc1nc2c(COc3ccc(CCC(=O)O)c(C)c3C)cc(F)cc2s1 [Compound 105, 3-{4-[(2-Ethyl-6-fluoro-1,3-benzothiazol-4-yl)methoxy]-2,3-dimethylphenyl}propanoic acid] | 402 nM | 204 nM | 91 nM
2 | Cc1c(CCC(=O)O)ccc(OCc2cc(Cl)cc3sc(C(C)(C)C)nc23)c1C [Compound 104, 3-{4-[(2-tert-Butyl-6-chloro-1,3-benzothiazol-4-yl)methoxy]-2,3-dimethylphenyl}propanoic acid] | 1550 nM | 1880 nM | 499 nM
